Results as given in US7728028B2, “Substituted imidazoline compounds” (Gruenenthal GmbH, priority 2005, dated 2010).

Target: T1, human μ-opiate receptor (Homo sapiens, UniProt P35372)
T1 construct: purchased PerkinElmer Life Sciences, Zaventem, Belgium RB-HOM; host or cells: CHO-K1 cells (recombinant expression; membrane preparation)
Assay: Affinity for the human μ-opiate receptor ([3H]-naloxone displacement, SPA)
Conditions: Table 2, Examples 11-161; test substance 1 μmole/l; inhibition of specific [3H]-naloxone binding; CHO-K1 membranes; read-out: μ-Opioid receptor, % inhibition [1 μM]
Protocol: Investigations on the Efficacy of the Compounds According to the Invention Method for Determining the Affinity for the Human μ-Opiate Receptor
The receptor affinity for the human μ-opiate receptor is determined in a homogeneous batch in microtiter plates. For this purpose dilution series of the substances to be tested are incubated with a receptor membrane preparation (15-40 μg protein/250 μl incubation batch) of CHO-K1 cells, which express the human μ-opiate receptor (RB-HOM receptor membrane preparation from PerkinElmer Life Sciences, Zaventem, Belgium), in the presence of 1 nmole/l of the radioactive ligand [^3H]-naloxone (NET719, PerkinElmer Life Sciences company, Zaventem, Belgium) and 1 mg WGA-SPA beads (wheat germ agglutinin SPA beads from Amersham/Pharmacia, Freiburg, Germany) in a total volume of 250 μl for 90 minutes at room temperature. 50 mmole/l of Tris-HCl supplemented with 0.06% bovine serum albumin is used as incubation buffer. In order to determine the non-specific binding, 100 μmole/l of naloxone is additionally added. After the end of the 90 minutes' incubation time the microtiter plates are centrifuged for 20 minutes at 1000 g and the radioactivity is measured in a beta counter (Microbeta-Trilux, PerkinElmer Wallac, Freiburg, Germany). The percentage displacement of the radioactive ligand from its binding to the human μ-opiate receptor at a concentration of the test substances of 1 μmole/l is determined and is given as percentage inhibition of the specific binding.

T1 sequence (P35372 whole entry): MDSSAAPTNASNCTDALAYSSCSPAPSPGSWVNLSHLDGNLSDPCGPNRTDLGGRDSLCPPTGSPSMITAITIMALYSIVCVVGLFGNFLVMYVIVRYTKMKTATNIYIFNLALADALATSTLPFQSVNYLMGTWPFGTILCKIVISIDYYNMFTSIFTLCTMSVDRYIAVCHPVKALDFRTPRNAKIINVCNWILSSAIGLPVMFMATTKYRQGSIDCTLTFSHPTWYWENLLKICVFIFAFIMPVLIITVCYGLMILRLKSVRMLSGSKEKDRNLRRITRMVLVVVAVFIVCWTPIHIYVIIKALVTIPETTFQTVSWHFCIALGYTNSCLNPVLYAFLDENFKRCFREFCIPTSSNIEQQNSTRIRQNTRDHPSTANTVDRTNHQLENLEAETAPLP

Point of comparison: `CCCN1C=NC(CSC)(C(=O)OC)C1CC1CCC(C(c2ccc(Cl)cc2)N(C)C)CC1` (stereo not shown) [Example 63, 5-{4-[(4-chlorophenyl)-dimethylaminomethyl]-cyclohexylmethyl}-4-methylsulfanylmethyl-1-propyl-4,5-dihydro-1H-imidazole-4-carboxylic acid methyl ester], inhibition at 1 µM 97%. Against it:
- COC(=O)C1(CC(C)C)N=CN(Cc2ccccc2)C1C1CCC(C(c2cccc(F)c2)N(C)C)CC1 (stereo not shown) [Example 46, 1-benzyl-5-{4-[dimethylamino-(3-fluorophenyl)-methyl]-cyclohexyl}-4-isobutyl-4,5-dihydro-1H-imidazole-4-carboxylic acid methyl ester] — lower, 92%
- CCCCC1(C(=O)OC)N=CN(CCC)C1C1CCC(C(c2cccc(F)c2)N(C)C)CC1 (stereo not shown) [Example 23, 4-butyl-5-{4-[dimethylamino-(3-fluorophenyl)-methyl]-cyclohexyl}-1-propyl-4,5-dihydro-1H-imidazole-4-carboxylic acid methyl ester] — lower, 76%
- COC(=O)C1(Cc2ccc(Cl)cc2)N=CN(C2CCCCC2)C1CC1CCC(C(c2cccs2)N(C)C)CC1 (stereo not shown) [Example 20, 4-(4-chlorobenzyl)-1-cyclohexyl-5-[4-(dimethylamino-thiophen-2-yl-methyl)-cyclohexylmethyl]-4,5-dihydro-1H-imidazole-4-carboxylic acid methyl ester] — lower, 95%
- CCCN1C=NC(CCSC)(C(=O)OC)C1CC1CCC(C(c2ccc(F)cc2)N(C)C)CC1 (stereo not shown) [Example 119, 5-{4-[dimethylamino-(4-fluorophenyl)-methyl]-cyclohexylmethyl}-4-(2-methylsulfanylethyl)-1-propyl-4,5-dihydro-1H-imidazole-4-carboxylic acid methyl ester] — lower, 90%
- CCCN1C=NC(CC(C)C)(C(=O)OC)C1C1CCC(C(c2cccc(F)c2)N(C)C)CC1 (stereo not shown) [Example 21, 5-{4-[dimethylamino-(3-fluorophenyl)-methyl]-cyclohexyl}-4-isobutyl-1-propyl-4,5-dihydro-1H-imidazole-4-carboxylic acid methyl ester] — lower, 83%
- COC(=O)C1(CSC)N=CN(Cc2ccccc2)C1C1CCC(C(c2cccc(F)c2)N(C)C)CC1 (stereo not shown) [Example 96, 1-benzyl-5-{4-[dimethylamino-(3-fluorophenyl)-methyl]-cyclohexyl}-4-methylsulfanylmethyl-4,5-dihydro-1H-imidazole-4-carboxylic acid methyl ester] — the same, 97%
- COC(=O)C1(CCSC)N=CN(Cc2ccccc2)C1CC1CCC(C(CCc2ccccc2)N(C)C)CC1 (stereo not shown) [Example 145, 1-benzyl-5-[4-(1-dimethylamino-3-phenylpropyl)-cyclohexylmethyl]-4-(2-methylsulfanyl-ethyl)-4,5-dihydro-1H-imidazole-4-carboxylic acid methyl ester] — lower, 79%
- COC(=O)C1(Cc2ccc(Cl)cc2)N=CN(C2CCCCC2)C1C1CCC(C(c2ccc(Cl)cc2)N(C)C)CC1 (stereo not shown) [Example 15, 4-(4-chlorobenzyl)-5-{4-[(4-chlorophenyl)-dimethylaminomethyl]-cyclohexyl}-1-cyclohexyl-4,5-dihydro-1H-imidazole-4-carboxylic acid methyl ester] — lower, 76%
- COC(=O)C1(CSCc2ccccc2)N=CN(C2CCCCC2)C1C1CCC(C(c2cccc(F)c2)N(C)C)CC1 (stereo not shown) [Example 116, 4-benzylsulfanylmethyl-1-cyclohexyl-5-{4-[dimethylamino-(3-fluorophenyl)-methyl]-cyclohexyl}-4,5-dihydro-1H-imidazole-4-carboxylic acid methyl ester] — higher, 101%
- CCCCN1C=NC(CCCC)(C(=O)OC)C1C1CCC(C(c2ccc(Cl)cc2)N(C)C)CC1 (stereo not shown) [Example 33, 1,4-dibutyl-5-{4-[(4-chlorophenyl)-dimethylaminomethyl]-cyclohexyl}-4,5-dihydro-1H-imidazole-4-carboxylic acid methyl ester] — lower, 85%
- CCCN1C=NC(CCSC)(C(=O)OC)C1CC1CCC(C(c2cccc(F)c2)N(C)C)CC1 (stereo not shown) [Example 112, 5-{4-[dimethylamino-(3-fluorophenyl)-methyl]-cyclohexylmethyl}-4-(2-methylsulfanyl-ethyl)-1-propyl-4,5-dihydro-1H-imidazole-4-carboxylic acid methyl ester] — lower, 95%
- CCCN1C=NC(CC(C)C)(C(=O)OC)C1C1CCC(C(c2ccc(Cl)cc2)N(C)C)CC1 (stereo not shown) [Example 24, 5-{4-[(4-chlorophenyl)-dimethylaminomethyl]-cyclohexyl}-4-isobutyl-1-propyl-4,5-dihydro-1H-imidazole-4-carboxylic acid methyl ester] — lower, 89%
- COC(=O)C1(CSCc2ccccc2)N=CN(CCc2ccccc2)C1CC1CCC(C(c2cccc(F)c2)N(C)C)CC1 (stereo not shown) [Example 82, 4-benzylsulfanylmethyl-5-{4-[dimethylamino-(3-fluorophenyl)-methyl]-cyclohexylmethyl}-1-phenethyl-4,5-dihydro-1H-imidazole-4-carboxylic acid methyl ester] — lower, 95%
- CCCN1C=NC(CCC(=O)OC)(C(=O)OC)C1C1CCC(C(c2ccc(Cl)cc2)N(C)C)CC1 (stereo not shown) [Example 59, 5-{4-[(4-chlorophenyl)-dimethylaminomethyl]-cyclohexyl}-4-(2-methoxycarbonylethyl)-1-propyl-4,5-dihydro-1H-imidazole-4-carboxylic acid methyl ester] — lower, 84%
- COC(=O)C1(CSCc2ccccc2)N=CN(CCc2ccccc2)C1C1CCC(C(c2cccc(F)c2)N(C)C)CC1 (stereo not shown) [Example 92, 4-benzylsulfanylmethyl-5-{4-[dimethylamino-(3-fluorophenyl)-methyl]-cyclohexyl}-1-phenethyl-4,5-dihydro-1H-imidazole-4-carboxylic acid methyl ester] — lower, 95%
- COC(=O)C1(C)N=CN(Cc2ccccc2)C1CC1CCC(C(c2cccc(F)c2)N(C)C)CC1 (stereo not shown) [Example 140, 1-benzyl-5-{4-[dimethylamino-(3-fluorophenyl)-methyl]-cyclohexylmethyl}-4-methyl-4,5-dihydro-1H-imidazole-4-carboxylic acid methyl ester] — higher, 98%
- COC(=O)C1(C)N=CN(CCc2ccccc2)C1CC1CCC(C(CCc2ccccc2)N(C)C)CC1 (stereo not shown) [Example 137, 5-[4-(1-dimethylamino-3-phenylpropyl)-cyclohexylmethyl]-4-methyl-1-phenethyl-4,5-dihydro-1H-imidazole-4-carboxylic acid methyl ester] — lower, 61%
- COC(=O)C1(Cc2ccc(Cl)cc2)N=CN(CCc2ccccc2)C1C1CCC(C(c2cccc(F)c2)N(C)C)CC1 (stereo not shown) [Example 38, 4-(4-chlorobenzyl)-5-{4-[dimethylamino-(3-fluorophenyl)-methyl]-cyclohexyl}-1-phenethyl-4,5-dihydro-1H-imidazole-4-carboxylic acid methyl ester] — lower, 84%
- CCCCN1C=NC(CCC(=O)OC)(C(=O)OC)C1CC1CCC(C(c2ccc(Cl)cc2)N(C)C)CC1 (stereo not shown) [Example 70, 1-butyl-5-{4-[(4-chlorophenyl)-dimethylaminomethyl]-cyclohexylmethyl}-4-(2-methoxycarbonylethyl)-4,5-dihydro-1H-imidazole-4-carboxylic acid methyl ester] — lower, 96%
- COC(=O)C1(CC(C)C)N=CN(C2CCCCC2)C1C1CCC(C(c2cccc(F)c2)N(C)C)CC1 (stereo not shown) [Example 11, 1-cyclohexyl-5-{4-[dimethylamino-(3-fluorophenyl)-methyl]-cyclohexyl}-4-isobutyl-4,5-dihydro-1H-imidazole-4-carboxylic acid methyl ester] — lower, 84%
- COC(=O)C1(CSC)N=CN(C2CCCCC2)C1CC1CCC(C(c2cccc(F)c2)N(C)C)CC1 (stereo not shown) [Example 149, 1-cyclohexyl-5-{4-[dimethylamino-(3-fluorophenyl)-methyl]-cyclohexylmethyl}-4-methylsulfanylmethyl-4,5-dihydro-1H-imidazole-4-carboxylic acid methyl ester] — higher, 99%
- COC(=O)C1(CC(C)C)N=CN(CCc2ccccc2)C1C1CCC(C(c2cccc(F)c2)N(C)C)CC1 (stereo not shown) [Example 37, 5-{4-[dimethylamino-(3-fluorophenyl)-methyl]-cyclohexyl}-4-isobutyl-1-phenethyl-4,5-dihydro-1H-imidazole-4-carboxylic acid methyl ester] — lower, 93%
- COC(=O)C1(C)N=CN(CCc2ccccc2)C1CC1CCC(C(c2cccc(F)c2)N(C)C)CC1 (stereo not shown) [Example 131, 5-{4-[dimethylamino-(3-fluorophenyl)-methyl]-cyclohexylmethyl}-4-methyl-1-phenethyl-4,5-dihydro-1H-imidazole-4-carboxylic acid methyl ester] — higher, 100%
- CCCCN1C=NC(Cc2ccc(Cl)cc2)(C(=O)OC)C1CC1CCC(C(c2ccc(Cl)cc2)N(C)C)CC1 (stereo not shown) [Example 35, 1-butyl-4-(4-chlorobenzyl)-5-{4-[(4-chlorophenyl)-dimethylaminomethyl]-cyclohexylmethyl}-4,5-dihydro-1H-imidazole-4-carboxylic acid methyl ester] — lower, 92%
